Here are results for two molecules from publication PMC10799085, “A miniaturized mode-of-action profiling platform enables high throughput characterization of the molecular and cellular dynamics of EZH2 inhibition” (Scientific Reports, 2024).

Assay [1] has as its target T1, PRC2/EZH2+/+ (Homo sapiens, UniProt Q15910).
T1 construct: purchased Active Motif
As to the kind of experiment: Equilibrium binding thermodynamics (van't Hoff analysis of ePCA/kPCA at 5-37 °C). The settings on record: ePCA at 5-37 °C, wild type EZH2. As to the method: (§1) For thermodynamic analysis of the binding to EZH2+/+ the probe characterization, equilibrium and kinetic probe competition assays described above (previously conducted at 25 °C) were performed at 5, 15, 30 and 37 °C. […] For measurements at 25, 30 and 37 °C, the temperature control functionality of the instrument was used.
Equilibrium and kinetic binding constants obtained at various temperatures were used to determine the thermodynamic parameters by van’t Hoff and Eyring analysis, as described elsewhere for SPR and radioligand binding experiments[46],[69]. For the van’t Hoff thermodynamic analysis, changes in entropy ΔS° and enthalpy ΔH° were estimated by linear regression using the van’t Hoff equation. lnKA=ΔS^∘/R-ΔH^∘/RT,
Changes in Gibb’s free energy ΔG° were calculated according to. ΔG^∘T=ΔH^∘-T×ΔS^∘
Additionally, the possible temperature dependence of the thermodynamic parameters was considered using the integrated form of the van’t Hoff equation[47] for nonlinear regression to yield the changes in entropy, enthalpy, and heat capacity ΔCp: ln KA=-ΔH^∘T^∘/RT+ΔS^∘T^∘/R+ΔCp/R[T-T^∘/T-lnT/T^∘],

Assay [2] addresses T1, PRC2/EZH2+/+. As to the kind of experiment: Transition state thermodynamics (Eyring analysis of kPCA at 5-37 °C). The class given is binding. The following applies: Kinetic (Eyre); for Enthalpic Efficiency (kon): association; for Enthalpic Efficiency (koff): dissociation. The procedure: as §1
For Eyring transition state analysis, changes in the activation entropy ΔS^# and enthalpy ΔH^# were estimated by Eyring analysis using linear regression of. lnkh/kBT=ΔS^#/R-ΔH^#/(RT).
To consider the possible temperature dependence, the activation entropy and enthalpy were obtained along with the activation heat capacity ΔC^#p by nonlinear regression using. lnkh/kBT=-ΔH^#T^∘/RT+ΔS^#T^∘/R+ΔCp#/R[T-T^∘/T-lnT/T^∘],

The next assay has as its target T2, PRC2/EZH1 (Homo sapiens, UniProt Q92800).
T2 construct: N-terminal 6His-tagged full length EZH2^Y641N, EZH2^Y111L, EZH2^Y111D, EZH2^Y641N, Y661DEZH2, EZH1; 6His (N); made in house; host or cells: Sf9 insect cells (baculovirus co-infection)
As to the kind of experiment: Scintillation proximity assay (SPA) of H3K27 methylation. The class given is biochemical. For orientation: In a scintillation proximity assay essentially only radioactivity close to the scintillant gives light.

The next assay addresses T3, PRC2/EZH2Y641N+Y661D (Homo sapiens, UniProt Q15910, Y641N/Y661D).
T3 construct: N-terminal 6His-tagged full length EZH2^Y641N, EZH2^Y111L, EZH2^Y111D, EZH2^Y641N, Y661DEZH2, EZH1; 6His (N); made in house; host or cells: Sf9 insect cells (baculovirus co-infection)
The assay is described as above. The class given is biochemical.

For assay [3], the system named is H3K27me3 mark in MDA-MB-231 cells. The experiment in a line: High content analysis (HCA) of cellular H3K27me3 mark, washout format. The class given is cell-based. The following applies: for IC50: Homo sapiens, MDA-MB-231, read-out: Mean IC50 (M), H3K27 methylation HCA. As to the method: In the low- and high-signal control wells, test compounds were replaced by 10 µM of EZH2 inhibitor (equal to unlabeled probe from ePCA and kPCA) or DMSO, respectively. […] After fixation, the cells were washed with PBS and incubated with 1% BSA blocking solution at RT for 1 h. Blocking solution was discarded, primary monoclonal antibody rabbit Tri-methyl-histone H3K27 (C36B11, Cell signaling) diluted 1:200 in blocking solution was added and incubated overnight at 4 °C. […] Afterwards, cells were washed three times with PBS and incubated at 4 °C until measuring. Fluorescence signals were captured by an Opera Phenix™ High Content Screening (HCA) system (Perkin Elmer) by 10× magnification. […] Microscopy images were initially visualized and preprocessed with MetaXpress High Content Image Acquisition & Analysis Software (Molecular Devices) as previously described. Raw data import, normalization, quality control and fitting curves for IC50 determination of tested compounds were done with Genedata Screener® for high-content screening. Wells with no recognizable signals were masked and the average intensity of the trimethylation signal was normalized to the DMSO control (0%).

The test system of another assay is EZH2. On the set-up: method as in Konze et al. [41]. The settings on record: 40-fold higher enzyme concentration; ref Konze et al. [41]; cited from earlier work.
Where [4] appears, read: 0' enzyme:inhibitor pre-incubation, read-out: SPA Mean IC50 (M) - 0' enzyme:inhibitor pre-incubation EZH2Y641N+Y661D.
The mark [5] stands for this setting: 15' enzyme:inhibitor pre-incubation, read-out: SPA Mean IC50 (M) - 15' enzyme:inhibitor pre-incubation EZH2Y641N+Y661D.
The mark [6] stands for this setting: 60' enzyme:inhibitor pre-incubation, read-out: SPA Mean IC50 (M) - 60' enzyme:inhibitor pre-incubation EZH2Y641N+Y661D.

Read-outs that look alike come from different tables or passages of the source.

T1 sequence (Q15910 whole entry): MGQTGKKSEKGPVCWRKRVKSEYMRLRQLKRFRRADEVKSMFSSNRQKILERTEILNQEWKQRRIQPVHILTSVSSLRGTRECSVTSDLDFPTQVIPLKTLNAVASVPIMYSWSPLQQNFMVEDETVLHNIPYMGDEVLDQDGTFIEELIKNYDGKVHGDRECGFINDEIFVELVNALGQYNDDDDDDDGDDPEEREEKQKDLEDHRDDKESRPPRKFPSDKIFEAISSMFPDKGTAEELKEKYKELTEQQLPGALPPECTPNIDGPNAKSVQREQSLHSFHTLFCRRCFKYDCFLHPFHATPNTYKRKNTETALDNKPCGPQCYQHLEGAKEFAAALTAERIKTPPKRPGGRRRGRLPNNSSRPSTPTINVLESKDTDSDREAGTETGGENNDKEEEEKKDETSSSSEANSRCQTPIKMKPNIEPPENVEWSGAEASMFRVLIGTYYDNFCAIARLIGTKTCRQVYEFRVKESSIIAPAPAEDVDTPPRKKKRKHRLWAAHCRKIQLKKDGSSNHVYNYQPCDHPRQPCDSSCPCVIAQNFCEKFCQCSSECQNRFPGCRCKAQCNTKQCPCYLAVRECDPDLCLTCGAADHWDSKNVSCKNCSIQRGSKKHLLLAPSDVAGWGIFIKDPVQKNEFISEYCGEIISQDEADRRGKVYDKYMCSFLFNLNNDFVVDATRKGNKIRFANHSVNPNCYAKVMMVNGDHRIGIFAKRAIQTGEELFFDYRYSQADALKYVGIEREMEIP
T1 sequence (O75530 whole entry partner): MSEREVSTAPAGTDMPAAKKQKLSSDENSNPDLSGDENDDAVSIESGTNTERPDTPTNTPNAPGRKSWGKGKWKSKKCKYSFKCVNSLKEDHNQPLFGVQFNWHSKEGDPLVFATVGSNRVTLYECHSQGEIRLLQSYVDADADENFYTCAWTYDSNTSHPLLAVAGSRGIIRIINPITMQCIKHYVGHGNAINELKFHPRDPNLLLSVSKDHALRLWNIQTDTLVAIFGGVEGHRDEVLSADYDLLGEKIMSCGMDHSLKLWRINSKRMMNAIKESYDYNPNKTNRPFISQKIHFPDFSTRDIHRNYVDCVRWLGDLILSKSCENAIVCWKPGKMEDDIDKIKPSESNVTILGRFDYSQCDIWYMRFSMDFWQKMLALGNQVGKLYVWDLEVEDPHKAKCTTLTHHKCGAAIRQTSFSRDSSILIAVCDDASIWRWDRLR
T1 sequence (Q15022 whole entry partner): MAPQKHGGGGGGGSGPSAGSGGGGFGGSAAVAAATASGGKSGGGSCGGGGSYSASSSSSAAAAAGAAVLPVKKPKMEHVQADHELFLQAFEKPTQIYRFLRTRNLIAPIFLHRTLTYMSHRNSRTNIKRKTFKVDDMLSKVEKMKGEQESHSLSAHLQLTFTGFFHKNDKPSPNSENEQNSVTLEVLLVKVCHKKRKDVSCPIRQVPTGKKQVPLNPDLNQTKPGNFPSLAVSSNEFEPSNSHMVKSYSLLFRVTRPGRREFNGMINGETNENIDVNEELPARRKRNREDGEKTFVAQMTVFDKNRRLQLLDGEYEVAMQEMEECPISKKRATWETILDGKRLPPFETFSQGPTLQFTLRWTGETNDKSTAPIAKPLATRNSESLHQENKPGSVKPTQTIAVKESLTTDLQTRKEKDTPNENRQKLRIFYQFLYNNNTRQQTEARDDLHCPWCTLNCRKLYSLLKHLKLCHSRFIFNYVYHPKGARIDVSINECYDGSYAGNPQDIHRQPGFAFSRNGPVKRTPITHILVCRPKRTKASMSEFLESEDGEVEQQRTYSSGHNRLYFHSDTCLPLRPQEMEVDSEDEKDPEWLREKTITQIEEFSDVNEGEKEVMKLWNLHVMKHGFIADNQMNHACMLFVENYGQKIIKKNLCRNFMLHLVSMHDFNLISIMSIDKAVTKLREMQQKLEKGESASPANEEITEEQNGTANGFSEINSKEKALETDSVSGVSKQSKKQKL
T1 sequence (Q09028 whole entry partner): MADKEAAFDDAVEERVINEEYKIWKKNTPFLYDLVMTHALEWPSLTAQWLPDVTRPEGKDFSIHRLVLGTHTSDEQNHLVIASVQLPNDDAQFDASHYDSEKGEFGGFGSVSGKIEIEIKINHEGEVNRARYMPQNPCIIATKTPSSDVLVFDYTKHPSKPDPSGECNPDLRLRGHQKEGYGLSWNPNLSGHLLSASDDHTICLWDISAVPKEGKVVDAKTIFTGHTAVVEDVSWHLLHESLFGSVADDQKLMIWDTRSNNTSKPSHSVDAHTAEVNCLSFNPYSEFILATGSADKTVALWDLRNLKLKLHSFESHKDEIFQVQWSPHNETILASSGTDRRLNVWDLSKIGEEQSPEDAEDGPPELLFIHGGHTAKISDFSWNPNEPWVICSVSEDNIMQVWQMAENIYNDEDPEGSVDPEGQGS
T1 sequence (Q6ZN18 whole entry partner): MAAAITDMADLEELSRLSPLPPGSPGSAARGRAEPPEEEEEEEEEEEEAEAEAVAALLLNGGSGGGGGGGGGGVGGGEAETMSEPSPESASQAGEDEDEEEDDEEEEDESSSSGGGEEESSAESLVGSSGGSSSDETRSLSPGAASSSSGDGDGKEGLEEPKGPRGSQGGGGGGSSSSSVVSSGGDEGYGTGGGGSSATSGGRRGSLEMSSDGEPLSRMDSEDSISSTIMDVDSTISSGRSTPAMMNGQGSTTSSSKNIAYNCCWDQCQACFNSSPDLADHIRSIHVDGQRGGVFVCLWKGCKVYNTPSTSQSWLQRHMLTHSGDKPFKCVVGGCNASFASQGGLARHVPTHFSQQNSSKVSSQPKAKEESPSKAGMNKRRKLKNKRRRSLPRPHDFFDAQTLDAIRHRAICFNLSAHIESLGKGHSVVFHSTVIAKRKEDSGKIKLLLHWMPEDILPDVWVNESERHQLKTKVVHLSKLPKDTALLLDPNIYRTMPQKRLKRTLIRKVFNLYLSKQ
T3 sequence (Q15910 whole entry Y641N/Y661D): as the sequence (Q15910 whole entry) above, with Y641N, Y661D counted along it
T3 sequence (O75530 whole entry partner): as the sequence (O75530 whole entry partner) above
T3 sequence (Q15022 whole entry partner): as the sequence (Q15022 whole entry partner) above
T3 sequence (Q09028 whole entry partner): as the sequence (Q09028 whole entry partner) above
T3 sequence (Q6ZN18 whole entry partner): as the sequence (Q6ZN18 whole entry partner) above

Usually IC50 stands for the concentration at which inhibition is half-maximal. On to `Cc1cc(C)c(CN2CCc3c(Cl)cc(-c4c(C)noc4C)c(Cl)c3C2=O)c(=O)[nH]1` [Compound 14], for which the “binding driving force, polynomial van't Hoff analysis” value at PRC2/EZH2+/+ [1] is listed as “entropy-driven”. For the same molecule, the “Enthalpic Efficiency (kon)” value at PRC2/EZH2+/+ [2] (EZH2+/+ (Linear Fit)) is on record as 1.3 kcal/mol; at PRC2/EZH2+/+ [2] (EZH2+/+ (Non-linear Fit)) it was 0.47 kcal/mol. Also, the “Enthalpic Efficiency (koff)” value on PRC2/EZH2+/+ [2] (EZH2+/+ (Linear Fit)) was found to be 1.9 kcal/mol; on PRC2/EZH2+/+ [2] (EZH2+/+ (Non-linear Fit)) it was 1.3 kcal/mol. Further, the figures for the “-T * ΔS°kon-koff” value at PRC2/EZH2+/+ [2] (EZH2+/+ (Linear Fit)) and at PRC2/EZH2+/+ [2] (EZH2+/+ (Non-linear Fit)) were -7.51 kcal/mol and -5.28 kcal/mol, respectively. For the same molecule, the “ΔG°kon-koff” value on PRC2/EZH2+/+ [2] (EZH2+/+ (Linear Fit)) was -12 kcal/mol; at PRC2/EZH2+/+ [2] (EZH2+/+ (Non-linear Fit)), -12.1 kcal/mol. Moreover, the figures for the “ΔH°kon-koff” value at PRC2/EZH2+/+ [2] (EZH2+/+ (Linear Fit)) and on PRC2/EZH2+/+ [2] (EZH2+/+ (Non-linear Fit)) were -4.49 kcal/mol and -6.79 kcal/mol, respectively. The “Ligand Efficiency - 0' enzyme:inhibitor pre-incubation EZH1” value at PRC2/EZH1 was 1.1. At PRC2/EZH1, the “Ligand Efficiency - 15' enzyme:inhibitor pre-incubation EZH1” value was 1.1. Also, the “Ligand Efficiency - 60' enzyme:inhibitor pre-incubation EZH1” value on PRC2/EZH1 turned out to be 1.1. Also, the 50% inhibitory concentration (IC50) came out at 3.1e-07 M at PRC2/EZH1 (0' enzyme:inhibitor pre-incubation, read-out: SPA Mean IC50 (M) - 0' enzyme:inhibitor pre-incubation EZH1); 2.9e-07 M on PRC2/EZH1 (15' enzyme:inhibitor pre-incubation, read-out: SPA Mean IC50 (M) - 15' enzyme:inhibitor pre-incubation EZH1); 2.9e-07 M at PRC2/EZH1 (60' enzyme:inhibitor pre-incubation, read-out: SPA Mean IC50 (M) - 60' enzyme:inhibitor pre-incubation EZH1); 1.4e-06 M at PRC2/EZH2Y641N+Y661D (setting [4]); 1.1e-06 M at PRC2/EZH2Y641N+Y661D (setting [5]); 1.6e-06 M on PRC2/EZH2Y641N+Y661D (setting [6]). For the same molecule, the IC50 turned out to be 7e-06 M in assay [3] (incubation time 0.5 h, washout time 71.5 h); 4.1e-06 M in assay [3] (incubation time 1 h, washout time 71 h); 2.9e-06 M in assay [3] (incubation time 2 h, washout time 70 h); 1.8e-06 M in assay [3] (incubation time 4 h, washout time 68 h); 1.6e-06 M in assay [3] (incubation time 24 h, washout time 48 h); 5.5e-07 M in assay [3] (incubation time 48 h, washout time 24 h). The IC50 in assay [3] (incubation time 72 h, washout time 0 h) worked out at 4.6e-08 M. Further, the “Ligand Efficiency - 0' enzyme:inhibitor pre-incubation EZH2Y641N+Y661D” value on PRC2/EZH2Y641N+Y661D stood at 1.0. In addition, the “Ligand Efficiency - 15' enzyme:inhibitor pre-incubation EZH2Y641N+Y661D” value at PRC2/EZH2Y641N+Y661D came out at 1.0. Also, the “Ligand Efficiency - 60' enzyme:inhibitor pre-incubation EZH2Y641N+Y661D” value at PRC2/EZH2Y641N+Y661D was determined as 1.0. Besides, the “AUC (a.u.)” value in assay [3] (HCA H3K27 methylation washout pIC50 AUC over all incubation/washout times) was determined as 92.2 a.u.
Consider `CCCc1cc(C)[nH]c(=O)c1CNC(=O)c1cc(-c2ccc(N3CCN(C(C)C)CC3)nc2)cc2c1cnn2C(C)C` [Compound 9, UNC1999], for which the IC50 on PRC2/EZH2Y641N+Y661D (setting [4]) is 3e-06 M; on PRC2/EZH2Y641N+Y661D (setting [5]), 2.4e-06 M; at PRC2/EZH2Y641N+Y661D (setting [6]) it was 3.2e-06 M; with EZH2 it was 10 nM.
